Results from patent US5925671A, “Antitumor isocoumarins” (Pharma Mar, s.a., priority 1995, dated 1999).
≈ marks a conversion by molar mass, not a printed value. Bridge positions count the residues as written; N and C are the ends. Square brackets hold non-standard residues; d marks the D form. Peptide text beside a SMILES is read from it. * marks the point of attachment. Ileψ(thiazoline)Cys = CC[C@H](C)[C@H](N)C1=N[C@H](C(=O)*)CS1; dOrn = NCCC[C@@H](N)C(=O)O

Key:
Type in all cases: cell-based
[1] = tested on: Bacillus sp. M-00-PHD-090 (CETC 4546); experiment: Antibiotic sensitivity of the producing strain (PASCO Data Management System MIC Gram Positive); conditions: 28° C., 48 hours incubation
Procedure: 5. Antibiotic Sensitivity - PASCO™ Data Management System (Difco) MIC Gram Positive
All cultures were incubated at 28° C. and records of the results were made after 48 hours incubation time. The descriptions of the culture and test results are as follows: […]

[2] = tested on: MEL-28 (monolayer culture of a human melanoma); experiment: Antitumor activity: growth inhibition of MEL-28 cells, 3 days, Crystal Violet staining; conditions: for IC50: Homo sapiens, SK-MEL-28, 72 h, MEL-28, three days, 37° C., approximate IC50; for antitumour activity against MEL-28 human melanoma: statement in words
Text: (§1) An adapted form of the method described by Bergeron et al ("Antineoplastic an antiherpetic activity of spermidine catecholamide iron chelators" Biochem. Bioph. Res. Comm., 1984, 121(3), 848-854, and see also Schroeder et al, "Effects of Acyclic Pyrimidine Nucleoside Analogues" Med. Chem., 1981, 24 1078-1083) was used to determine the antitumor activity of the compounds of this invention. Three cultures of antitumour cell were employed. A-549 (monolayer culture of a human lung carcinoma, HT-29 (monolayer culture of a human colon carcinoma) and MEL-28 J (monolayer culture of a human melanoma).
(§2) A-549, HT-29 and MEL-28 were seeded into 16 mm wells at 2×20" cells per well in 1 ml aliquots of MEM 10FCS containing the identical concentration of drug. A separate set of cultures without drug was seeded a control growth to ensure that cells remained in exponential phase of growth. All determinations were carried out in duplicate. After three days of incubation at 37° C., 10% CO2 in 98% humid atmosphere, the wells were stained with 0.1% Crystal Violet. An approximate IC50 was determined by comparing growth in wells with drug to the growth in control wells.

[3] = tested on: HT-29 (monolayer culture of a human colon carcinoma); experiment: Antitumor activity: growth inhibition of HT-29 cells, 3 days, Crystal Violet staining; conditions: for IC50: Homo sapiens, 72 h, HT-29, three days, 37° C., approximate IC50; for antitumour activity against HT-29 human colon carcinoma: statement in words
Text: as §1, §2

[4] = tested on: A-549 (monolayer culture of a human lung carcinoma); experiment: Antitumor activity: growth inhibition of A-549 cells, 3 days, Crystal Violet staining; conditions: for IC50: Homo sapiens, A549, 72 h, A-549, three days, 37° C., approximate IC50; for antitumour activity against A-549 human lung carcinoma: statement in words
Text: as §1, §2

Compound | Antibiotic sensitivity [1] | other results
CO/N=C(\C(=O)N[C@@H]1C(=O)N2C(C(=O)O)=C(COC(N)=O)CS[C@H]12)c1ccco1 [cefuroxime] | Sensitive | –
CN(C)C1C(=O)C(C(N)=O)=C(O)C2(O)C(=O)C3=C(O)c4c(O)cccc4C(C)(O)C3CC12 (stereo not shown) [tretracycline] | Sensitive | –
Cc1onc(-c2ccccc2)c1C(=O)N[C@@H]1C(=O)N2[C@@H]1SC(C)(C)[C@@H]2C(=O)O [oxacillin] | Sensitive | –
N[C@@H](C(=O)N[C@@H]1C(=O)N2C(C(=O)O)=C(Cl)CS[C@H]12)c1ccccc1 [ceflactor] | Sensitive | –
CN[C@H](CC(C)C)C(=O)N[C@H]1C(=O)N[C@@H](CC(N)=O)C(=O)N[C@H]2C(=O)N[C@H]3C(=O)N[C@H](C(=O)N[C@H](C(=O)O)c4cc(O)cc(O)c4-c4cc3ccc4O)[C@H](O)c3ccc(c(Cl)c3)Oc3cc2cc(c3O[C@@H]2O[C@H](CO)[C@@H](O)[C@H](O)[C@H]2O[C@H]2C[C@](C)(N)[C@H](O)[C@H](C)O2)Oc2ccc(cc2Cl)[C@H]1O [vancomycin] | resistant | –
NCC[C@H](O)C(=O)N[C@@H]1C[C@H](N)[C@@H](O[C@H]2O[C@H](CN)[C@@H](O)[C@H](O)[C@H]2O)[C@H](O)[C@H]1O[C@H]1O[C@H](CO)[C@@H](O)[C@H](N)[C@H]1O [amikacin] | Sensitive | –
CCn1cc(C(=O)O)c(=O)c2ccc(C)nc21 [nalidixic acid] | Sensitive | –
CC(C)CC(N)C(O)C(O)C(=O)NC(CC(C)C)C1Cc2cccc(O)c2C(=O)O1 (stereo not shown) [PM-94128] | – | IC50 [2]: 0.02 µg/mL (≈ 0.0473 µM); antitumour activity against MEL-28 human melanoma [2]: exhibit antitumour activity; IC50 [3]: 0.02 µg/mL (≈ 0.0473 µM); antitumour activity against HT-29 human colon carcinoma [3]: exhibit antitumour activity; IC50 [4]: 0.02 µg/mL (≈ 0.0473 µM); antitumour activity against A-549 human lung carcinoma [4]: exhibit antitumour activity
C[C@@H]1O[C@@H]1P(=O)(O)O [fosfomicin] | Sensitive | –
[H]/N=C(/N)N[C@H]1[C@H](O)[C@@H](O)[C@H](O[C@@H]2O[C@@H](C)[C@](O)(C=O)[C@H]2O[C@@H]2O[C@@H](CO)[C@H](O)[C@@H](O)[C@@H]2NC)[C@@H](N/C(N)=N\[H])[C@@H]1O [streptomycin] | Sensitive | –
CO[C@@]1(NC(=O)Cc2cccs2)C(=O)N2C(C(=O)O)=C(COC(N)=O)CS[C@@H]21 [cefoxitin] | Sensitive | –
CC[C@H]1OC(=O)[C@H](C)[C@@H](O[C@H]2C[C@@](C)(OC)[C@@H](O)[C@H](C)O2)[C@H](C)[C@@H](O[C@@H]2O[C@H](C)C[C@H](N(C)C)[C@H]2O)[C@](C)(O)C[C@@H](C)C(=O)[C@H](C)[C@@H](O)[C@]1(C)O [erythromycin] | Sensitive | –
gentamicin | Sensitive | –
CC(C)CC(NC(=O)C(O)C(O)C(N)CC(N)=O)C1Cc2cccc(O)c2C(=O)O1 (stereo not shown) [Amicoumacin A, amicoumacin A] | – | IC50 [2]: 0.15 µg/mL (≈ 0.354 µM); antitumour activity against MEL-28 human melanoma [2]: exhibit antitumour activity; IC50 [3]: 1.5 µg/mL (≈ 3.54 µM); antitumour activity against HT-29 human colon carcinoma [3]: exhibit antitumour activity; IC50 [4]: 0.75 µg/mL (≈ 1.77 µM); antitumour activity against A-549 human lung carcinoma [4]: exhibit antitumour activity
CO[C@@H]1[C@@H](OC(N)=O)[C@@H](O)[C@H](Oc2ccc3c(O)c(NC(=O)c4ccc(O)c(CC=C(C)C)c4)c(=O)oc3c2C)OC1(C)C [novobiocin] | Sensitive | –
CC1(C)S[C@@H]2[C@H](NC(=O)Cc3ccccc3)C(=O)N2[C@H]1C(=O)O [penicillin] | Sensitive | –
CC[C@H](C)[C@H](N)C1=N[C@H](C(=O)N[C@@H](CC(C)C)C(=O)N[C@H](CCC(=O)O)C(=O)N[C@H](C(=O)N[C@H]2CCCCNC(=O)[C@H](CC(N)=O)NC(=O)[C@@H](CC(=O)O)NC(=O)[C@H](Cc3cnc[nH]3)NC(=O)[C@@H](Cc3ccccc3)NC(=O)[C@H]([C@@H](C)CC)NC(=O)[C@@H](CCCN)NC2=O)[C@@H](C)CC)CS1 [bacitracin] ({Ileψ(thiazoline)Cys}-L[dE]IK[dOrn]I[dF]H[dD]N; lactam 4-C) | resistant | –
CC1(C)S[C@@H]2[C@H](NC(=O)[C@H](N)c3ccccc3)C(=O)N2[C@H]1C(=O)O [ampicillin] | Sensitive | –
CO[C@H]1/C=C/O[C@@]2(C)Oc3c(C)c(O)c4c(O)c(c(/C=N/N5CCN(C)CC5)c(O)c4c3C2=O)NC(=O)/C(C)=C\C=C\[C@H](C)[C@H](O)[C@@H](C)[C@@H](O)[C@@H](C)[C@H](OC(C)=O)[C@@H]1C [rifampicin] | Sensitive | –
CCn1cc(C(=O)O)c(=O)c2cc(F)c(N3CCNCC3)cc21 [norfloxacin] | Sensitive | –
teicoplanin | resistant | –
